Test results: patent US11655243B2, “Pyridine and pyrazine derivatives as preferential cannabinoid 2 agonists” (HOFFMANN-LA ROCHE INC., priority 2018, dated 2023)

Molecular target: human CNR2 receptors (CB2 receptor) (Homo sapiens (Human), UniProt P34972)
Assay: Radioligand binding assay, human CB2 (CNR2)
Conditions: membranes of HEK cells expressing human CNR2, 2.6 nM [3H]-CP-55,940 radioligand; read-out: Binding assay human CB2 Ki
Procedure: Radioligand Binding Assay
The affinity of the compounds of the invention for cannabinoid CB1 receptors was determined using recommended amounts of membrane preparations (PerkinElmer) of human embryonic kidney (HEK) cells expressing the human CNR1 or CNR2 receptors in conjunction with 1.5 or 2.6 nM [3H]-CP-55,940 (Perkin Elmer) as radioligand, respectively. Binding was performed in binding buffer (50 mM Tris, 5 mM MgCl2, 2.5 mM EDTA, and 0.5% (wt/vol) fatty acid free BSA, pH 7.4 for CB1 receptor and 50 mM Tris, 5 mM MgCl2, 2.5 mM EGTA, and 0.1% (wt/vol) fatty acid free BSA, pH 7.4 for CB2 receptor) in a total volume of 0.2 ml for 1 h at 30° C. shaking. The reaction was terminated by rapid filtration through microfiltration plates coated with 0.5% polyethylenimine (UniFilter GFB filter plate; Packard). Bound radioactivity was analyzed for Ki using nonlinear regression analysis (Activity Base, ID Business Solution, Limited), with the Kd values for [3H]CP55,940 determined from saturation experiments. The compounds of formula (I) show an excellent affinity for the CB2 receptor.
The compounds according to formula (I) have an activity in the above assay (Ki) between 0.5 nM and 10 μM. Particular compounds of formula (I) have an activity in the above assay (Ki) between 0.5 nM and 3 μM. Other particular compounds of formula (I) have an activity in the above assay (Ki) between 0.5 nM and 100 nM.

human CNR2 receptors (CB2 receptor), sequence (P34972 whole entry): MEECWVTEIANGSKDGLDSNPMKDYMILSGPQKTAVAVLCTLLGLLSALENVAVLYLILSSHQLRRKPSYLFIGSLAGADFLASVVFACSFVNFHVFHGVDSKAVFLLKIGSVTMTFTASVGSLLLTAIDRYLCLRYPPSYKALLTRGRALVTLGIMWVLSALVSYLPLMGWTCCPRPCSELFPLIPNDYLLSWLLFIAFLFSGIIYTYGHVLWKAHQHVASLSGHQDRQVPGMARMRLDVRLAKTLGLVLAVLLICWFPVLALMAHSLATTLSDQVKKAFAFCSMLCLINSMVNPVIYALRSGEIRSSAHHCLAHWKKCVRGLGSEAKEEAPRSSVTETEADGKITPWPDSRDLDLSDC

Compound	Ki [nM]
CCC(CC)(NC(=O)c1ccc(N2CC(OC)C2)c(OC[C@@H]2C[C@H]2CO)n1)C(=O)OCF [Example 11, (−)-trans-Fluoromethyl 2-ethyl-2-{[6-{[(1R,2R)-2-(hydroxymethyl)cyclopropyl]methoxy}-5-(3-methoxyazetidin-1-yl)pyridine-2-carbonyl]amino}butanoate]	9.7
CCC(CC)(NC(=O)c1ccc(N2CC(OC)C2)c(OC[C@@H]2C[C@H]2CO)n1)C(=O)OCCF [Example 14, (−)-trans-2-Fluoroethyl 2-ethyl-2-{[6-{[-2-(hydroxymethyl)cyclopropyl]methoxy}-5-(3-methoxyazetidin-1-yl)pyridine-2-carbonyl]amino}butanoate]	11.4
CCOC(=O)C(CC)(CC)NC(=O)c1ccc(N2CC(OC)C2)c(OC[C@@H]2C[C@@H]2CF)n1 (mixture of isomers) [Example 4, Ethyl 2-ethyl-2-{[6-{[(1R,2S)-2-(fluoromethyl)cyclopropyl]methoxy}-5-(3-methoxyazetidin-1-yl)pyridine-2-carbonyl]amino}butanoate and ethyl 2-ethyl-2-{[6-{[(1S,2R)-2-(fluoromethyl)cyclopropyl]methoxy}-5-(3-methoxyazetidin-1-yl)pyridine-2-carbonyl]amino}butanoate]	0.7
CC(C)C[C@@H](COCCF)NC(=O)c1ccc(N2CCCC2)c(OCC2COC2)n1 [Example 18, N-[(2S)-1-(2-Fluoroethoxy)-4-methylpentan-2-yl]-6-[(oxetan-3-yl)methoxy]-5-(pyrrolidin-1-yl)pyridine-2-carboxamide]	21
CCOC(=O)C(CC)(CC)NC(=O)c1cc(F)c(N2CC(OC)C2)c(OCC2CC2)n1 [Example 7, Ethyl 2-{[6-(cyclopropylmethoxy)-4-fluoro-5-(3-methoxyazetidin-1-yl)pyridine-2-carbonyl]amino}-2-ethylbutanoate]	2.5

Further lines, results first:

Ki [nM]	Compound
607	CCC(CC)(NC(=O)c1ccc(N2CCCC2)c(OCC2(CO)COC2)n1)C(=O)OCCF [Example 34, 2-Fluoroethyl 2-ethyl-2-(6-((3-(hydroxymethyl)oxetan-3-yl)methoxy)-5-(pyrrolidin-1-yl)picolinamide)butanoate]
331	COC1CN(c2ccc(C(=O)N[C@H](COCCF)CC(C)C)nc2OCC2COC2)C1 [Example 17, N-[(2S)-1-(2-Fluoroethoxy)-4-methylpentan-2-yl]-5-(3-methoxyazetidin-1-yl)-6-[(oxetan-3-yl)methoxy]pyridine-2-carboxamide]
246	CCC(CC)(NC(=O)c1ccc(N2CC(OC)C2)c(OC[C@H]2C[C@@H]2COCc2ccccc2)n1)C(=O)OCCCF [Example 32, 3-Fluoropropyl 2-[[6-[[(1S,2S)-2-(benzyloxymethyl)cyclopropyl]methoxy]-5-(3-methoxyazetidin-1-yl)pyridine-2-carbonyl]amino]-2-ethyl-butanoate]
0.8	[2H]C([2H])(F)C([2H])([2H])C([2H])([2H])OC(=O)C(CC)(CC)NC(=O)c1ccc(N2CC(OC)C2)c(OC[C@H]2C[C@@H]2CO)n1 [Example 19, (1,1,2,2,3,3-Hexadeuterio-3-fluoro-propyl) 2-ethyl-2-[[6-[[(1S,2S)-2-(hydroxymethyl)cyclopropyl]methoxy]-5-(3-methoxyazetidin-1-yl)pyridine-2-carbonyl]amino]butanoate]
21.6	CCC(CC)(NC(=O)c1ccc(N2CC(OC)C2)c(OC[C@H]2C[C@@H]2CO)n1)C(=O)OCCCOS(=O)(=O)c1ccc(C)cc1 [Example 23, 3-(p-Tolylsulfonyloxy)propyl 2-ethyl-2-[[6-[[(1S,2S)-2-(hydroxymethyl)cyclopropyl]methoxy]-5-(3-methoxyazetidin-1-yl)pyridine-2-carbonyl]amino]butanoate]
130	CCC(CC)(NC(=O)c1ccc(N2CC(OC)C2)c(OC[C@H]2C[C@@H]2CO)n1)C(=O)N[C@H](CO)CC(C)C [Example 26, N-[1-Ethyl-1-[[(1S)-1-(hydroxymethyl)-3-methyl-butyl]carbamoyl]propyl]-6-[[(1S,2S)-2-(hydroxymethyl)cyclopropyl]methoxy]-5-(3-methoxyazetidin-1-yl)pyridine-2-carboxamide]
